Assay results from the Kinase Knowledgebase extract (Sharma et al. 2016).

biological target: CDK2 (UniProt P24941); assay: Enzyme Assay

IC50, < 0.5 µM:
CCCCNC(=O)c1cc2[nH]nc(NC(=O)CCCC)c2s1
CCC(NC(=O)c1cc2[nH]nc(NC(=O)c3ccc(N4CCN(C)CC4)cc3)c2o1)c1ccccc1 (configuration not stated)
CN1CCN(c2ccc(C(=O)Nc3n[nH]c4cc(C(=O)NCc5ccco5)sc34)cc2)CC1
CCCCNC(=O)c1cc2[nH]nc(NC(=O)C3CC3)c2s1
C[C@@H](NC(=O)c1cc2c(NC(=O)c3ccc(N4CCN(C)CC4)cc3)n[nH]c2s1)c1ccccc1
Cc1c(C(=O)NCc2ccc(F)cc2)sc2c(NC(=O)c3cccs3)n[nH]c12
CCC(NC(=O)c1cc2[nH]nc(NC(=O)c3ccc(N4CCOCC4)cc3)c2o1)c1ccccc1 (configuration not stated)
CCNC(=O)c1cc2[nH]nc(NC(=O)c3ccc(N4CCN(C)CC4)cc3)c2s1
C=CCNC(=O)c1cc2[nH]nc(NC(=O)NCc3ccccc3)c2s1
CCCCNC(=O)c1cc2[nH]nc(NC(=O)c3cccs3)c2s1
CN1CCN(c2ccc(C(=O)Nc3n[nH]c4cc(C(=O)NCc5ccoc5)sc34)cc2)CC1
Cc1c(C(=O)NCc2ccc(F)cc2)sc2c(NC(=O)c3ccc(F)cc3)n[nH]c12
CN1CCN(C(=O)c2cc3[nH]nc(NC(=O)c4ccc(F)cc4)c3s2)CC1
CN1CCN(C(=O)c2cc3[nH]nc(NC(=O)c4ccc(F)cc4)c3o2)CC1
O=C(Nc1n[nH]c2cc(C(=O)O)sc12)c1ccc(N2CCOCC2)cc1
O=C(Nc1n[nH]c2cc(C(=O)O)oc12)c1ccc(N2CCOCC2)cc1
O=C(Nc1n[nH]c2cc(C(=O)NCc3ccccc3)sc12)c1cc(F)cc(F)c1
